Measured values as given in patent US20240217960A1, “TRIAZINE DERIVATIVE AS COVALENT INHIBITORS OF PI3K” (UNIVERSITÄT BASEL, priority 2021, published 2024).

What was measured:
[1] = test system: pSer473 of PKB/Akt in SKOV3 cells; assay: In Cell Western cellular PI3K signaling and IC50 determination; assay type: cell-based; settings: Homo sapiens, SK-OV-3; SKOV3 cells; 2 or 3 independent measurements; read-out: IC50 pPKB (S473) SKOV3
Experimental: Protein phosphorylation was detected as follows: pSer473 of PKB/Akt with rabbit polyclonal antibody from Cell Signaling Technology (CST) (#4058) by In-Cell Western assays, where 1.2×10^4 SKOV3 cells/well in 96-well plates were plated (Cell Carrier, PerkinElmer) for 24 hours (37° C., 5% CO2), as described in Ref. ^25.

p110α (PI3Kα) = p110α (PI3Kα) (Homo sapiens, UniProt P42336); assay: Determination of kinetic constants (kinact, Ki) for p110α by LanthaScreen Technology; assay type: binding; settings: for Ki: dissociation constant of the first reversible binding, read-out: Ki PI3Kα
Sequence of p110α (PI3Kα) (P42336 whole entry): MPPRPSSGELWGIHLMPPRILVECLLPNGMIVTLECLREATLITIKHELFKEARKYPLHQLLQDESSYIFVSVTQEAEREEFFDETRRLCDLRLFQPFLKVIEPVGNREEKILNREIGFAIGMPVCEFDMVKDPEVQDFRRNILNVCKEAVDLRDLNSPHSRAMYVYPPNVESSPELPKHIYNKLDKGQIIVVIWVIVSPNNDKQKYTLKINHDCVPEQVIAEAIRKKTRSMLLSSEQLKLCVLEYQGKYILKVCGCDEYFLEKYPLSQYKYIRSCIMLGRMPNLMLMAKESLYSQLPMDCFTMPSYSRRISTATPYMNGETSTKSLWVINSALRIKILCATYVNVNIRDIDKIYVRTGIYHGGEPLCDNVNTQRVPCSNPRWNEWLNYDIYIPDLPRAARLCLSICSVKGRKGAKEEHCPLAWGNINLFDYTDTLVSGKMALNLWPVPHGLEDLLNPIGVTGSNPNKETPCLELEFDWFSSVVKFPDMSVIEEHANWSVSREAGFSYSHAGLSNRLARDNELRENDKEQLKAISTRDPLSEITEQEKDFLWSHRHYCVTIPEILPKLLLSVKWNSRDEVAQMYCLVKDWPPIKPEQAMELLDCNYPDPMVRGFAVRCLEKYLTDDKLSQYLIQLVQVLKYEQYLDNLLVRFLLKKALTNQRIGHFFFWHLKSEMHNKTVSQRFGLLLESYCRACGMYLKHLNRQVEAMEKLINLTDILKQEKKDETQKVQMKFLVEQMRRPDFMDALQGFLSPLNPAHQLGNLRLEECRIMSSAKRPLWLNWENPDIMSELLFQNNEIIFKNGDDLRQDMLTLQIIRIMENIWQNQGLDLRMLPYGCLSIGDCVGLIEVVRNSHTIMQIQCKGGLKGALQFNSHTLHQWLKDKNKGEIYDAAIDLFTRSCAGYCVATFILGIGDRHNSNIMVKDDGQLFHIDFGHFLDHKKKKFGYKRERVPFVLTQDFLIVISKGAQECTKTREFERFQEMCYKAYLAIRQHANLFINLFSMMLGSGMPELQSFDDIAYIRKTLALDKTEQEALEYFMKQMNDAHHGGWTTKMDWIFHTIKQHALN
Sequence of p110α (PI3Kα) (P27986 whole entry partner): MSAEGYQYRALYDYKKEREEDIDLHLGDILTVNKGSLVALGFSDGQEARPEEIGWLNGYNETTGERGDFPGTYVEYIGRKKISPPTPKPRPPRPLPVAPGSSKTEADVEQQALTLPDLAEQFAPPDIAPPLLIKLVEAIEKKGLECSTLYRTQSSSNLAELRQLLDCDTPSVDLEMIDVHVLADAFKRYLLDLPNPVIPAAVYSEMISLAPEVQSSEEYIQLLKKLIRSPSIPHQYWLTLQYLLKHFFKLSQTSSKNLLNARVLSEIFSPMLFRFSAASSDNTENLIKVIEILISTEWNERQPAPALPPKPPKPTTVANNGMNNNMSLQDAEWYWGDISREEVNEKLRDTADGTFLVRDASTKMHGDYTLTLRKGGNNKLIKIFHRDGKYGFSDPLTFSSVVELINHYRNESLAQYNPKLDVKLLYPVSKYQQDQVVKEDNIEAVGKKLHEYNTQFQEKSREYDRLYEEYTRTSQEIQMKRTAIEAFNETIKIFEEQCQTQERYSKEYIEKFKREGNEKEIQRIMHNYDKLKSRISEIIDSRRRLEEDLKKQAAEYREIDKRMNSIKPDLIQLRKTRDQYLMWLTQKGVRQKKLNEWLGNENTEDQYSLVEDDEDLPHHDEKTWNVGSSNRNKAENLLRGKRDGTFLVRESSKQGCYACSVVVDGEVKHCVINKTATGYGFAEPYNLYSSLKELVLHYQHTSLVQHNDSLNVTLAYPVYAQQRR

IC50 [1] [µM] | Structure (SMILES) | other results
0.891 | CN(C)C/C=C/C(=O)N1CCC(C(=O)N(C)CC(=O)N2CCN(c3nc(-c4cnc(N)nc4C(F)F)nc(N4CCOCC4)n3)CC2)CC1 [Compound 56, (E)-N-(2-(4-(4-(2-amino-4-(difluoromethyl)pyrimidin-5-yl)-6-morpholino-1,3,5-triazin-2-yl)piperazin-1-yl)-2-oxoethyl)-1-(4-(dimethylamino)but-2-enoyl)-N-methylpiperidine-4-carboxamide] | 
0.017 | CC(C)=CC(=O)CCC(=O)N1CC[C@@H](C(=O)N2CCN(c3nc(-c4cnc(N)nc4C(F)F)nc(N4CCOCC4)n3)CC2)C1 [Compound 86, (R)-1-(3-(4-(4-(2-amino-4-(difluoromethyl)pyrimidin-5-yl)-6-morpholino-1,3,5-triazin-2-yl)piperazine-1-carbonyl)pyrrolidin-1-yl)-6-methylhept-5-ene-1,4-dione] | 
0.024 | CC(C)=CC(=O)CCC(=O)N1CC[C@H](C(=O)N2CCN(c3nc(-c4cnc(N)nc4C(F)F)nc(N4CCOCC4)n3)CC2)C1 [Compound 81, (S)-1-(3-(4-(4-(2-amino-4-(difluoromethyl)pyrimidin-5-yl)-6-morpholino-1,3,5-triazin-2-yl)piperazine-1-carbonyl)pyrrolidin-1-yl)-6-methylhept-5-ene-1,4-dione] | 
0.093 | CC(C)=CC(=O)CCCC(=O)N1CC[C@@H](C(=O)N2CCN(c3nc(-c4cnc(N)cc4C(F)(F)F)nc(N4CCOCC4)n3)CC2)C1 [Compound 90, (R)-1-(3-(4-(4-(6-amino-4-(trifluoromethyl)pyridin-3-yl)-6-morpholino-1,3,5-triazin-2-yl)piperazine-1-carbonyl)pyrrolidin-1-yl)-7-methyloct-6-ene-1,5-dione] | 
0.011 | CC(C)=CC(=O)CCCC(=O)N1CC[C@H](C(=O)N2CCN(c3nc(-c4cnc(N)nc4C(F)F)nc(N4CCOCC4)n3)CC2)C1 [Compound 84, (S)-1-(3-(4-(4-(2-amino-4-(difluoromethyl)pyrimidin-5-yl)-6-morpholino-1,3,5-triazin-2-yl)piperazine-1-carbonyl)pyrrolidin-1-yl)-7-methyloct-6-ene-1,5-dione] | 
0.034 | CC(C)=CC(=O)CCC(=O)N1CC(C(=O)N2CCN(c3nc(-c4cnc(N)nc4C(F)F)nc(N4CCOCC4)n3)CC2)C1 [Compound 92, 1-(3-(4-(4-(2-amino-4-(difluoromethyl)pyrimidin-5-yl)-6-morpholino-1,3,5-triazin-2-yl)piperazine-1-carbonyl)azetidin-1-yl)-6-methylhept-5-ene-1,4-dione] | 
0.073 | CC(C)=CC(=O)CCCC(=O)N1CC[C@H](C(=O)N2CCN(c3nc(-c4cnc(N)cc4C(F)(F)F)nc(N4CCOCC4)n3)CC2)C1 [Compound 85, (S)-1-(3-(4-(4-(6-amino-4-(trifluoromethyl)pyridin-3-yl)-6-morpholino-1,3,5-triazin-2-yl)piperazine-1-carbonyl)pyrrolidin-1-yl)-7-methyloct-6-ene-1,5-dione] | 
0.031 | CC(C)=CC(=O)CCCC(=O)N1CCC(C(=O)N2CCN(c3nc(-c4cnc(N)nc4C(F)F)nc(N4CCOCC4)n3)CC2)CC1 [Compound 69, 1-(4-(4-(4-(2-amino-4-(difluoromethyl)pyrimidin-5-yl)-6-morpholino-1,3,5-triazin-2-yl)piperazine-1-carbonyl)piperidin-1-yl)-7-methyloct-6-ene-1,5-dione] | 
0.017 | CC(C)=CC(=O)CCCC(=O)N1CC(CN2CCN(c3nc(-c4cnc(N)nc4C(F)F)nc(N4CCOCC4)n3)CC2)C1 [Compound 97, 1-(3-((4-(4-(2-amino-4-(difluoromethyl)pyrimidin-5-yl)-6-morpholino-1,3,5-triazin-2-yl)piperazin-1-yl)methyl)azetidin-1-yl)-7-methyloct-6-ene-1,5-dione] | 
0.112 | CC(C)=CC(=O)CCCC(=O)N1CCC(C(=O)N2CCN(c3nc(-c4cnc(N)cc4C(F)(F)F)nc(N4CCOCC4)n3)CC2)CC1 [Compound 71, 1-(4-(4-(4-(6-amino-4-(trifluoromethyl)pyridin-3-yl)-6-morpholino-1,3,5-triazin-2-yl)piperazine-1-carbonyl)piperidin-1-yl)-7-methyloct-6-ene-1,5-dione] | 
0.063 | CC(C)CC(=O)CCCC(=O)N1CCC(C(=O)N2CCN(c3nc(-c4cnc(N)nc4C(F)F)nc(N4CCOCC4)n3)CC2)CC1 [Compound 70, 1-(4-(4-(4-(2-amino-4-(difluoromethyl)pyrimidin-5-yl)-6-morpholino-1,3,5-triazin-2-yl)piperazine-1-carbonyl)piperidin-1-yl)-7-methyloctane-1,5-dione] | 
0.046 | CC(C)=CC(=O)CCC(=O)N1CCC(CN2CCN(c3nc(-c4cnc(N)nc4C(F)F)nc(N4CCOCC4)n3)CC2)CC1 [Compound 72, 1-(4-((4-(4-(2-amino-4-(difluoromethyl)pyrimidin-5-yl)-6-morpholino-1,3,5-triazin-2-yl)piperazin-1-yl)methyl)piperidin-1-yl)-6-methylhept-5-ene-1,4-dione] | 
0.177 | CC(C)=CC(=O)CCCC(=O)N1CCC(CN2CCN(c3nc(-c4cnc(N)cc4C(F)(F)F)nc(N4CCOCC4)n3)CC2)CC1 [Compound 78, 1-(4-((4-(4-(6-amino-4-(trifluoromethyl)pyridin-3-yl)-6-morpholino-1,3,5-triazin-2-yl)piperazin-1-yl)methyl)piperidin-1-yl)-7-methyloct-6-ene-1,5-dione] | 
0.012 | CC(C)=CC(=O)CCCC(=O)N1CC(C(=O)N2CCN(c3nc(-c4cnc(N)nc4C(F)F)nc(N4CCOCC4)n3)CC2)C1 [Compound 94, 1-(3-(4-(4-(2-amino-4-(difluoromethyl)pyrimidin-5-yl)-6-morpholino-1,3,5-triazin-2-yl)piperazine-1-carbonyl)azetidin-1-yl)-7-methyloct-6-ene-1,5-dione] | 
0.033 | CC(C)=CC(=O)CCC(=O)N1CC(CN2CCN(c3nc(-c4cnc(N)nc4C(F)F)nc(N4CCOCC4)n3)CC2)C1 [Compound 95, 1-(3-((4-(4-(2-amino-4-(difluoromethyl)pyrimidin-5-yl)-6-morpholino-1,3,5-triazin-2-yl)piperazin-1-yl)methyl)azetidin-1-yl)-6-methylhept-5-ene-1,4-dione] | 
0.00596 | N#C/C(=C/C1CC1)C(=O)N1CCC(COCC(=O)N2CCN(c3nc(-c4cnc(N)nc4C(F)F)nc(N4CCOCC4)n3)CC2)CC1 [Compound 118, (Z)-2-(4-((2-(4-(4-(2-amino-4-(difluoromethyl)pyrimidin-5-yl)-6-morpholino-1,3,5-triazin-2-yl)piperazin-1-yl)-2-oxoethoxy)methyl)piperidine-1-carbonyl)-3-cyclopropylacrylonitrile] | Ki (p110α (PI3Kα); global fitting with KinTek): 0.001 µM; kinact (p110α (PI3Kα); maximum potential rate of covalent bond formation, global fitting with KinTek, read-out: kinact PI3Kα): 0.0108 s⁻¹; kinact/KI (p110α (PI3Kα); read-out: kinact/Ki PI3Kα): 1.08e+07 M⁻¹ s⁻¹
0.0067 | CC(C)=CC(=O)CCCC(=O)N1CC[C@@H](C(=O)N2CCN(c3nc(-c4cnc(N)nc4C(F)F)nc(N4CCOCC4)n3)CC2)C1 [Compound 89, (R)-1-(3-(4-(4-(2-amino-4-(difluoromethyl)pyrimidin-5-yl)-6-morpholino-1,3,5-triazin-2-yl)piperazine-1-carbonyl)pyrrolidin-1-yl)-7-methyloct-6-ene-1,5-dione] | 

Structure (SMILES) | IC50 [1] [µM] | other results
CCC(=O)N1CCC(C(=O)NCC(=O)N2CCN(c3nc(-c4cnc(N)nc4C(F)F)nc(N4CCOCC4)n3)CC2)CC1 [Compound 44, N-(2-(4-(4-(2-amino-4-(difluoromethyl)pyrimidin-5-yl)-6-morpholino-1,3,5-triazin-2-yl)piperazin-1-yl)-2-oxoethyl)-1-propionylpiperidine-4-carboxamide] | 0.2 | Ki (p110α (PI3Kα); global fitting with KinTek): 0.00255 µM
